Measurements reported in US8680139B2 (Progenra, priority 2009, dated 2014).

Target: T1, USP7 (Homo sapiens, UniProt Q93009)
T1 construct: full length human USP7 protein; made in house
Test: USP7, Ub-PLA2 assay
Type: biochemical
Settings: Ub-PLA2 / NBD C6-HPC fluorescence, 30 minute preincubation; read-out: EC50 for inhibition of USP7
Experimental: The purpose of this assay is to measure the inhibition of USP7 by various compounds of the invention synthesized according to the above-described methods. […] The vehicle control was 100% (v/v) DMSO. 1.6 μL aliquots of the diluted test compound and controls were dispensed into individual wells in a black walled 96 well plate. […] The data were normalized within a plate relative to the control wells using the equation % inhibition=(100−(((RFUcompound−RFUmean NEM) / (RFUmean DMSO−RFUmean NEM))×100)).

T1 sequence (Q93009 whole entry): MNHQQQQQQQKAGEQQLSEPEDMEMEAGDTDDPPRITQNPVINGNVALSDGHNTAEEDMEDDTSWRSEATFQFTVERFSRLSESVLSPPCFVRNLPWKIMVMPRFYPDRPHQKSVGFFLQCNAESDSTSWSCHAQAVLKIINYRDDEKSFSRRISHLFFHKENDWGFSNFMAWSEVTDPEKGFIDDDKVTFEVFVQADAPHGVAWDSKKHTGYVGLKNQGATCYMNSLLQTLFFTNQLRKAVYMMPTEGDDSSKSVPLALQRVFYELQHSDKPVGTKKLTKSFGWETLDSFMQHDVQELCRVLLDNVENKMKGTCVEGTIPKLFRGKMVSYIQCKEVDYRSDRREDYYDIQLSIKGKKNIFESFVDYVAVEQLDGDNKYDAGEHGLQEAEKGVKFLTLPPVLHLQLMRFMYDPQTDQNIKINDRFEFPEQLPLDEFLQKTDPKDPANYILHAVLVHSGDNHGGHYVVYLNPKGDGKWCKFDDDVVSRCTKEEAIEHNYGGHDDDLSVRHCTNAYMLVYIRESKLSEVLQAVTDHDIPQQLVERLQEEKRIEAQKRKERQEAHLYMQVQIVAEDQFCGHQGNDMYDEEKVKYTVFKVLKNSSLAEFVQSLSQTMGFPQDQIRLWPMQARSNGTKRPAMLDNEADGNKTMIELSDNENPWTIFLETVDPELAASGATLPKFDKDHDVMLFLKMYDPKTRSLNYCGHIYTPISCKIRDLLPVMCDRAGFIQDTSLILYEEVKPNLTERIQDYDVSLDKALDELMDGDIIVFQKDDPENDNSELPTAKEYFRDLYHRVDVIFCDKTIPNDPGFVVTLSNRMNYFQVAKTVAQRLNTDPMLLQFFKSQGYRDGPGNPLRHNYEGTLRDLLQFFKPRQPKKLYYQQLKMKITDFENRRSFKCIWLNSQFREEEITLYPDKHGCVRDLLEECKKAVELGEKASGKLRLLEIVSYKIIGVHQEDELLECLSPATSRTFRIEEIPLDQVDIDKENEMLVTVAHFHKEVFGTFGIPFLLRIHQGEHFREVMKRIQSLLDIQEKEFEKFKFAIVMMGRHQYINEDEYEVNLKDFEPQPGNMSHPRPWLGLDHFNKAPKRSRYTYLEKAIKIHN

SMILES | EC50 [µM]
O=C(NCC(=O)N1CCC(O)CC1)c1cc([N+](=O)[O-])c(Sc2c(Cl)cncc2Cl)s1 [Example 211, 5-((3,5-dichloropyridin-4-yl)thio)-N-(2-(4-hydroxypiperidin-1-yl)-2-oxoethyl)-4-nitrothiophene-2-carboxamide] | 1 to 10
CC(C)(C)OC(=O)N1CCC(NC(=O)c2cc([N+](=O)[O-])c(Sc3c(Cl)cncc3Cl)s2)CC1 [Example 85, tert-butyl 4-(5-((3,5-dichloropyridin-4-yl)thio)-4-nitrothiophene-2-carboxamido)piperidine-1-carboxylate] | 1 to 10
N=C(N)N1CCC(NC(=O)c2cc([N+](=O)[O-])c(Sc3c(Cl)cncc3Cl)s2)CC1 [Example 237, N-(1-carbamimidoylpiperidin-4-yl)-5-((3,5-dichloropyridin-4-yl)thio)-4-nitrothiophene-2-carboxamide] | ≤ 1
O=C(Nc1cccc(F)c1)c1cc([N+](=O)[O-])c(Sc2c(Cl)cncc2Cl)s1 [Example 138, 5-((3,5-dichloropyridin-4-yl)thio)-N-(3-fluorophenyl)-4-nitrothiophene-2-carboxamide] | ≤ 1
O=C(NCc1ccccc1)c1cc([N+](=O)[O-])c(Sc2nc3ccccc3s2)s1 [Example 252, 5-(benzo[d]thiazol-2-ylthio)-N-benzyl-4-nitrothiophene-2-carboxamide] | 1 to 10
CN(C)CCNC(=O)CNC(=O)c1cc([N+](=O)[O-])c(Sc2c(Cl)cncc2Cl)s1 [Example 217, 5-((3,5-dichloropyridin-4-yl)thio)-N-(2-((2-(dimethylamino)ethyl)amino)-2-oxoethyl)-4-nitrothiophene-2-carboxamide] | 1 to 10
O=C(NCCc1cccnc1)c1cc([N+](=O)[O-])c(Sc2c(Cl)cncc2Cl)s1 [Example 108, 5-((3,5-dichloropyridin-4-yl)thio)-4-nitro-N-(2-(pyridin-3-yl)ethyl)thiophene-2-carboxamide] | ≤ 1
CC(=O)c1cc([N+](=O)[O-])c(S(=O)(=O)c2ccc(Cl)cc2Cl)s1 [Example 35, 1-[5-(2,4-dichlorophenyl)sulfonyl-4-nitro-2-thienyl]ethanone] | 1 to 10
O=C(NCCc1ccccc1F)c1cc([N+](=O)[O-])c(Sc2c(Cl)cncc2Cl)s1 [Example 111, 5-((3,5-dichloropyridin-4-yl)thio)-N-(2-fluorophenethyl)-4-nitrothiophene-2-carboxamide] | ≤ 1
O=C(NC1CCNC1)c1cc([N+](=O)[O-])c(Sc2c(Cl)cncc2Cl)s1 (stereo not drawn) [Example 195, 5-((3,5-dichloropyridin-4-yl)thio)-4-nitro-N-(pyrrolidin-3-yl)thiophene-2-carboxamide] | ≤ 1
COc1cc(NC(=O)c2cc([N+](=O)[O-])c(Sc3c(Cl)cncc3Cl)s2)cc(OC)c1OC [Example 169, 5-((3,5-dichloropyridin-4-yl)thio)-4-nitro-N-(3,4,5-trimethoxyphenyl)thiophene-2-carboxamide] | ≤ 1
CC(=O)c1cc([N+](=O)[O-])c(Sc2c(F)c(F)cc(F)c2F)s1 [Example 36, 1-[4-nitro-5-(2,3,5,6-tetrafluorophenyl)sulfanyl-2-thienyl]ethanone] | 1 to 10
CC(=O)c1cc(I)c(Sc2ccc(Cl)cc2Cl)s1 [Example 20, 1-[5-(2,4-dichlorophenyl)sulfanyl-4-iodo-2-thienyl]ethanone] | > 10
COc1ccc(Cl)cc1NC(=O)c1cc([N+](=O)[O-])c(Sc2c(Cl)cncc2Cl)s1 [Example 130, N-(5-chloro-2-methoxyphenyl)-5-((3,5-dichloropyridin-4-yl)thio)-4-nitrothiophene-2-carboxamide] | ≤ 1
CCn1cnc(NC(=O)c2cc([N+](=O)[O-])c(Sc3c(Cl)cncc3Cl)s2)n1 [Example 186, 5-((3,5-dichloropyridin-4-yl)thio)-N-(1-ethyl-1H-1,2,4-triazol-3-yl)-4-nitrothiophene-2-carboxamide] | ≤ 1
